Consider three compounds from patent US10828143B2, “Tissue-engineered bowel constructs” (Wake Forest University Health Sciences, priority 2015, dated 2020).

Common to all, as to parameters: species or system human
In experiment [1] the test system is circular strips of implanted engineered sphincter and gut segments. The experiment can be described thus: Real time force generation of circular strips of harvested sphincters and gut tissues.
A further experiment has as its system circular strips of hTEB. Kind of experiment: Organ bath studies of hTEB circular strips following omentum implantation.
For experiment [2], the system named is sphincter and rectal cuff cross sections. The experiment can be described thus: Physiological studies on cross sections of harvested sphincter and rectal cuff.

SMILES strings stand for the structures. “Also recorded” adds a separate entry of the source.

For `COC(=O)[C@@H](N)CCCNC(=N)N[N+](=O)[O-].Cl` [LNAME, Nω-Nitro-L-arginine methyl ester hydrochloride], the “EFS-induced relaxation after LNAME pre-treatment” value in experiment [1] (gut segments, without LNAME −355±8 μN, in µN) is −223±29; in experiment [1] (sphincters, without LNAME −294±26 μN), −140±6 μN. In addition, the “effect on magnitude of EFS-induced relaxation” value in experiment [1] (pre-incubation of implants with LNAME) was “significantly reduced”. Also, the “inhibition of EFS-induced relaxation” value in the experiment with circular strips of hTEB (pretreatment with LNAME) came out at 50%.

In the case of `CN1[C@@H]2CC[C@H]1C[C@@H](OC(=O)C(CO)c1ccccc1)C2` (stereo partly shown) [atropine], the “effect on ACh-induced contraction” value in the experiment with circular strips of hTEB was “did not cause a contraction; also recorded: inhibited”.

On to `NC1=N[C@H](O)[C@H]2[C@H]3O[C@]4(O)O[C@@H]([C@@H](O)[C@@]2(N1)[C@@H]4O)[C@]3(O)CO` [TTX, tetrodotoxin], for which the “effect on EFS-induced relaxation” value in experiment [1] was “completely abolished”. In addition, the “effect on EFS-induced relaxation” value with circular strips of hTEB is listed as “abolished”. Besides, in experiment [2], the “effect on Ach-induced contraction” value was “significantly attenuated”, the “effect on EFS-induced relaxation” value is listed as “completely inhibited” and the “effect on VIP-induced relaxation” value was “significantly diminished”.
